Assay results published in US8440660B2 (Santen Pharmaceutical Co., Ltd., priority 2006, dated 2013).
Counter-ions that a name gives are not always drawn.

Target: T1, Glucocorticoid Receptor (GR) (Homo sapiens, UniProt P04150)
T1 construct: purchased Invitrogen P2816
T1 sequence (P04150 1-777): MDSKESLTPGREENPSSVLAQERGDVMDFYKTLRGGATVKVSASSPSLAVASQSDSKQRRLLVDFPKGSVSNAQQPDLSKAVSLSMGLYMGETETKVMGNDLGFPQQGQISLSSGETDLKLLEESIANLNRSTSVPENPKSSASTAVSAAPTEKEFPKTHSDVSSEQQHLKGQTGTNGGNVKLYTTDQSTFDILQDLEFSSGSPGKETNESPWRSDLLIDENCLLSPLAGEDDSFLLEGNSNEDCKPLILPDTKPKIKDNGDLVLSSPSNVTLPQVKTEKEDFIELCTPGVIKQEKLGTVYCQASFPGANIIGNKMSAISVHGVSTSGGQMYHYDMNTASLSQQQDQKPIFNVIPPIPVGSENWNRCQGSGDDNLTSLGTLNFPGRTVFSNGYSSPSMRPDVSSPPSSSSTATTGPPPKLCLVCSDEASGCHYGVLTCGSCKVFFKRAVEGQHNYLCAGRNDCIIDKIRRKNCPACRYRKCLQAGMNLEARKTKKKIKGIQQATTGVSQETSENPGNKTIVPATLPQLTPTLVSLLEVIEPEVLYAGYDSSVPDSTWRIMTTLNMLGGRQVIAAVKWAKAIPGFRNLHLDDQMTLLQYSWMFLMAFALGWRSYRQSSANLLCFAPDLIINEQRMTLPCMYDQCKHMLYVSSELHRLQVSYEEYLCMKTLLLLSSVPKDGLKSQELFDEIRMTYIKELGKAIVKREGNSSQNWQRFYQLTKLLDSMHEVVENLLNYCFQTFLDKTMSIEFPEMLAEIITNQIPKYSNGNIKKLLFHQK
Assay: GR receptor competitor assay by fluorescence polarization (Invitrogen GR competitor assay kit, cat No. P2816)
Conditions: 20 μM test compound solution, 10 μL per well plus 5 μL 4×GS1 and 5 μL 4×GR solution; recombinant human GR; 2 to 4 hours at room temperature; a ratio of 100% or more is indicated by 100%; read-out: GR Binding ratio (%)
Experimental: A detailed explanation of this matter will be described in the section of “Pharmacological Test” in Examples described below. In order to find the usefulness of the present compound as a pharmaceutical, a glucocorticoid receptor competitor assay was carried out by a fluorescence polarization method by using a glucocorticoid receptor competitor assay kit (manufactured by Invitrogen, cat No P2816) to study the glucocorticoid receptor binding activity of the present compound.
1. Evaluation Test for Binding Activity to Glucocorticoid Receptor (Hereinafter Referred to as “GR”)
In order to evaluate a binding activity to GR, a receptor competitor assay was carried out by a fluorescence polarization method. In the assay, a GR competitor assay kit (manufactured by Invitrogen, cat No. P2816) was used, and a procedure was carried out according to the protocol attached to the kit. Hereinafter, the specific method will be described.
(Preparation of Reagents)
GR screening buffer: A buffer containing 10 mM potassium phosphate (pH 7.4), 20 mM sodium molybdate (Na2MoO4), 0.1 mM ethylene diamine tetraacetic acid (EDTA), 5 mM dithiothreitol (DTT), 0.1 mM stabilizing peptide and 2% dimethylsulfoxide was prepared.
4×GS1 solution: Fluormone™ GS1, which is a fluorescent glucocorticoid ligand, was diluted with GR screening buffer, whereby a 4 nM solution was prepared.
4×GR solution: Recombinant human GR was diluted with GR screening buffer, whereby a 16 nM solution was prepared.
(Preparation of Test Compound Solution)
After a test compound was dissolved in dimethylsulfoxide, the resulting solution was diluted with GR screening buffer, whereby a 20 μM test compound solution was prepared.
(Test Method and Measurement Method)
1) The test compound solution was added in an amount of 10 μL into each well of a 384-well plate, and then, 4×GS1 solution and 4×GR solution were added in an amount of 5 μL into each well, respectively.
2) The plate was incubated in a dark place at room temperature for 2 to 4 hours.
3) By using a multimode plate reader, Analyst™ HT (manufactured by LJL Biosystems), fluorescence polarization of each well was measured. As the blank, a well containing GR screening buffer in place of the test compound and 4×GS1 solution was used.
4) The same procedure as that in the above 1) to 3) was carried out except that GR screening buffer was used in place of the test compound solution, and the obtained result was taken as the negative control.
5) The same procedure as that in the above 1) to 3) was carried out except that 2 mM dexamethasone was used in place of the test compound solution, and the obtained result was taken as the positive control.
(Calculation Equation of GR Binding Ratio)
A GR binding ratio (%) was calculated from the following equation. GR binding ratio (%)=100×[1−(fluorescence polarization of test compound solution−fluorescence polarization of positive control solution)/(fluorescence polarization of negative control solution−fluorescence polarization of positive control solution)] (Test Results and Discussion)

Row | inhibition at 10 µM [%] | Compound
1 | 100 | COc1cc(OC(=O)N2CCOCC2)ccc1-c1ccc2c(c1COc1cc([N+](=O)[O-])ccc1C)C(C)=CC(C)(C)N2 [Compound 6-30, 6-[2-Methoxy-4-(morpholin-4-ylcarbonyloxy)phenyl]-5-(2-methyl-5-nitrophenoxymethyl)-2,2,4-trimethyl-1,2-dihydroquinoline]
2 | 100 | CCS(=O)(=O)Oc1ccc(-c2ccc3c(c2COc2cc([N+](=O)[O-])ccc2C)C(C)=CC(C)(C)N3)c(OC)c1 [Compound 4-23, 6-(4-Ethylsulfonyloxy-2-methoxyphenyl)-5-(2-methyl-5-nitrophenoxymethyl)-2,2,4-trimethyl-1,2-dihydroquinoline]

Further lines, the compound ahead of its results:

Row | Compound | inhibition at 10 µM [%]
3 | COc1cc(OC(=O)c2ccsc2)ccc1-c1ccc2c(c1COc1cc(F)ccc1C)C(C)=CC(C)(C)N2 [Compound 1-18, 5-(5-Fluoro-2-methylphenoxymethyl)-6-[2-methoxy-4-(thiophen-3-ylcarbonyloxy)phenyl]-2,2,4-trimethyl-1,2-dihydroquinoline] | 100
4 | COC(=O)c1ccc(NC(=O)Oc2ccc(-c3ccc4c(c3COc3cc(F)ccc3C)C(C)=CC(C)(C)N4)c(OC)c2)cc1 [Compound 6-14, 5-(5-Fluoro-2-methylphenoxymethyl)-6-[2-methoxy-4-(4-methoxycarbonylphenylaminocarbonyloxy)phenyl]-2,2,4-trimethyl-1,2-dihydroquinoline] | 88
5 | COc1cc(OC(=O)c2cccnc2C)ccc1-c1ccc2c(c1COc1cc([N+](=O)[O-])ccc1C)C(C)=CC(C)(C)N2 [Compound 1-122, 6-[2-Methoxy-4-(2-methylpyridin-3-ylcarbonyloxy)phenyl]-5-(2-methyl-5-nitrophenoxymethyl)-2,2,4-trimethyl-1,2-dihydroquinoline] | 100
6 | COc1cc(OC(=O)c2cncnc2)ccc1-c1ccc2c(c1COc1cc(F)ccc1C)C(C)=CC(C)(C)N2 [Compound 1-78, 5-(5-Fluoro-2-methylphenoxymethyl)-6-[2-methoxy-4-(pyrimidin-5-ylcarbonyloxy)phenyl]-2,2,4-trimethyl-1,2-dihydroquinoline] | 100
7 | COc1cc(OC(=O)c2cccs2)ccc1-c1ccc2c(c1COc1cc(F)ccc1C)C(C)=CC(C)(C)N2 [Compound 1-31, 5-(5-Fluoro-2-methylphenoxymethyl)-6-[2-methoxy-4-(thiophen-2-ylcarbonyloxy)phenyl]-2,2,4-trimethyl-1,2-dihydroquinoline] | 100
8 | COc1cc(OC(=O)c2cocn2)ccc1-c1ccc2c(c1COc1cc(F)ccc1C)C(C)=CC(C)(C)N2 [Compound 1-56, 5-(5-Fluoro-2-methylphenoxymethyl)-6-[2-methoxy-4-(oxazol-4-ylcarbonyloxy)phenyl]-2,2,4-trimethyl-1,2-dihydroquinoline] | 100
9 | COc1cc(OC(=O)c2ccccc2OC(C)=O)ccc1-c1ccc2c(c1COc1cc(F)ccc1C)C(C)=CC(C)(C)N2 [Compound 1-50, 6-[4-(2-Acetoxybenzoyloxy)-2-methoxyphenyl]-5-(5-fluoro-2-methylphenoxymethyl)-2,2,4-trimethyl-1,2-dihydroquinoline] | 97
10 | COc1cc(OC(=O)c2cccc(C(C)=O)c2)ccc1-c1ccc2c(c1COc1cc(F)ccc1C)C(C)=CC(C)(C)N2 [Compound 1-58, 6-[4-(3-Acetylbenzoyloxy)-2-methoxyphenyl]-5-(5-fluoro-2-methylphenoxymethyl)-2,2,4-trimethyl-1,2-dihydroquinoline] | 100
11 | COc1cc(OC(=O)c2cccnc2OC)ccc1-c1ccc2c(c1COc1cc(F)ccc1C)C(C)=CC(C)(C)N2 [Compound 1-125, 5-(5-Fluoro-2-methylphenoxymethyl)-6-[2-methoxy-4-(2-methoxypyridin-3-ylcarbonyloxy)phenyl]-2,2,4-trimethyl-1,2-dihydroquinoline] | 100
12 | COc1cc(OC(=O)c2ccccn2)ccc1-c1ccc2c(c1COc1cc(F)ccc1C)C(C)=CC(C)(C)N2 [Compound 1-35, 5-(5-Fluoro-2-methylphenoxymethyl)-6-[2-methoxy-4-(pyridin-2-ylcarbonyloxy)phenyl]-2,2,4-trimethyl-1,2-dihydroquinoline] | 100
13 | COc1cc(OC(=O)Nc2ccc(C#N)cc2)ccc1-c1ccc2c(c1COc1cc(F)ccc1C)C(C)=CC(C)(C)N2 [Compound 6-17, 6-[4-(4-Cyanophenylaminocarbonyloxy)-2-methoxyphenyl]-5-(5-fluoro-2-methylphenoxymethyl)-2,2,4-trimethyl-1,2-dihydroquinoline] | 90
14 | COc1ccc(OC(=O)c2ccccn2)cc1-c1ccc2c(c1COc1cc(F)ccc1C)C(C)=CC(C)(C)N2 [Compound 1-44, 5-(5-Fluoro-2-methylphenoxymethyl)-6-[2-methoxy-5-(pyridin-2-ylcarbonyloxy)phenyl]-2,2,4-trimethyl-1,2-dihydroquinoline] | 100
15 | COc1ccc([N+](=O)[O-])cc1OCc1c(-c2ccc(OC(=O)c3ccccc3OC)cc2OC)ccc2c1C(C)=CC(C)(C)N2 [Compound 1-102, 6-[2-Methoxy-4-(2-methoxybenzoyloxy)phenyl]-5-(2-methoxy-5-nitrophenoxymethyl)-2,2,4-trimethyl-1,2-dihydroquinoline] | 100
16 | COc1cc(OC(=O)c2cscn2)ccc1-c1ccc2c(c1COc1cc(F)ccc1C)C(C)=CC(C)(C)N2 [Compound 1-54, 5-(5-Fluoro-2-methylphenoxymethyl)-6-[2-methoxy-4-(thiazol-4-ylcarbonyloxy)phenyl]-2,2,4-trimethyl-1,2-dihydroquinoline] | 100
17 | COc1cc(OC(=O)C2CCN(C(=O)OC(C)(C)C)CC2)ccc1-c1ccc2c(c1COc1cc(F)ccc1C)C(C)=CC(C)(C)N2 [Compound 1-51, 6-[4-(1-t-Butoxycarbonylpiperidin-4-ylcarbonyloxy)-2-methoxyphenyl]-5-(5-fluoro-2-methylphenoxymethyl)-2,2,4-trimethyl-1,2-dihydroquinoline] | 91
18 | COc1cc(OC(=O)c2ccnc(Cl)c2)ccc1-c1ccc2c(c1COc1cc(F)ccc1C)C(C)=CC(C)(C)N2 [Compound 1-90, 6-[4-(2-Chloropyridin-4-ylcarbonyloxy)-2-methoxyphenyl]-5-(5-fluoro-2-methylphenoxymethyl)-2,2,4-trimethyl-1,2-dihydroquinoline] | 95
19 | COc1cc(OC(=O)c2ccc([N+](=O)[O-])cc2)ccc1-c1ccc2c(c1COc1cc(F)ccc1C)C(C)=CC(C)(C)N2 [Compound 1-40, 5-(5-Fluoro-2-methylphenoxymethyl)-6-[2-methoxy-4-(4-nitrobenzoyloxy)phenyl]-2,2,4-trimethyl-1,2-dihydroquinoline] | 100
20 | COc1cc(OC(=O)CN)ccc1-c1ccc2c(c1COc1cc(F)ccc1C)C(C)=CC(C)(C)N2 [Compound 3-1, 6-(4-Aminoacetoxy-2-methoxyphenyl)-5-(5-fluoro-2-methylphenoxymethyl)-2,2,4-trimethyl-1,2-dihydroquinoline monohydrochloride] | 100
